This note sets out measurements from patent publication US10508104B2, “6-hydroxy-5-(phenyl/heteroarylsulfonyl)pyrimidin-4(1H)-one as APJ agonists” (Bristol-Myers Squibb Company, priority 2016, dated 2019).

pEC50: −log10 of the molar value.

Sequence of human APJ receptor (P35414 whole entry): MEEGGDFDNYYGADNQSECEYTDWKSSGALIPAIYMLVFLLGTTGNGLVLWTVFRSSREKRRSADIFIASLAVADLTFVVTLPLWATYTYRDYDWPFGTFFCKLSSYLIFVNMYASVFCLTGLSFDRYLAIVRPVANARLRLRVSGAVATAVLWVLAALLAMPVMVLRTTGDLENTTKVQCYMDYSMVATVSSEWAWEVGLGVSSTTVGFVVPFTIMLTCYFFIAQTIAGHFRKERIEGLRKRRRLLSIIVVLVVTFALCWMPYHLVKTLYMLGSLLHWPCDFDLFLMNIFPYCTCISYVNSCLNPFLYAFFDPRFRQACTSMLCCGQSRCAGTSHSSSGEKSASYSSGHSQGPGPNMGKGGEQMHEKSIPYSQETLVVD

One assay has as its target human APJ receptor (Homo sapiens (Human), UniProt P35414). The assay can be described thus: Intracellular cAMP accumulation assay (APJ hcAMP, HTRF). The class given is cell-based. The following applies: HEK293 cells stably expressing human APJ receptor; inhibition of forskolin-mediated cAMP production; read-out: Human APJ cAMP EC50 Potency range. In short, it runs like this:
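HEK293 cells stably expressing human APJ, 5,000 per well, incubated 30 min at rt with compound, […] and 2 μM forskolin. cAMP measured by HTRF against a cAMP standard curve as inhibition of forskolin-driven production. EC50 from variable-slope sigmoidal fit.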
Background: Cyclic AMP is a second messenger, typically raised through Gs and lowered through Gi signalling.
`COC[C@@H](c1ccccc1)n1c(COC(C)C)nc(=O)c(S(=O)(=O)c2ccc(-c3cnccc3C#N)c(F)c2)c1O` [Example 409, 3-[2-fluoro-4-({6-hydroxy-1-[(1R)-2-methoxy-1-phenylethyl]-4-oxo-2-[(propan-2-yloxy)methyl]-1,4-dihydropyrimidin-5-yl}sulfonyl)phenyl]pyridine-4-carbonitrile]: the pEC50 (usually the negative decadic logarithm of the EC50, by convention in mol/L) was 8.00 to 11.00. On the same count and under the same terms, the result for `Cc1nc(F)ccc1-c1ccc(S(=O)(=O)c2c(O)n([C@H](c3cccc(C#N)c3)C3CC3)c(CC3CC3)nc2=O)cc1` [Example 499, 3-[(S)-cyclopropyl[2-(cycIopropylmethyl)-5-[4-(6-fluoro-2-methylpyridin-3-yl)benzenesulfonyl]-6-hydroxy-4-oxo-1,4-dihydropyrimidin-1-yl]methyl]benzonitrile] reads 8.00 to 11.00. Regarding `CCCCc1nc(=O)c(S(=O)(=O)c2ccc(-c3cccc4c3C(=O)NC4)cc2)c(O)n1[C@@H](CC)c1cccc(C#N)c1` [Example 529, 3-[(1S)-1-{2-butyl-6-hydroxy-4-oxo-5-[4-(3-oxo-2,3-dihydro-1H-isoindol-4-yl)benzenesulfonyl]-1,4-dihydropyrimidin-1-yl}propyl]benzonitrile], the pEC50 was 8.00 to 11.00.

The assay is the same for the next values; noted with them: human APJ, cAMP accumulation; read-out: Human APJ cAMP EC50 Potency range.
As to `CCCCCc1nc(=O)c(S(=O)(=O)c2ccc(-c3ccncc3C)cc2)c(O)n1[C@@H](COC)c1ccccc1` [Example 245, 6-hydroxy-1-[(1R)-2-methoxy-1-phenylethyl]-5-[4-(3-methylpyridin-4-yl)benzenesulfonyl]-2-pentyl-1,4-dihydropyrimidin-4-one], the pEC50 is 8.00 to 11.00. Still for that read-out and setting: the result for `CCOCc1nc(=O)c(S(=O)(=O)c2ccc(-c3ccc(F)nc3C)c(F)c2)c(O)n1C(COC)c1cccc(F)c1` (centres unmarked) [Example 347, 2-(ethoxymethyl)-5-[3-fluoro-4-(6-fluoro-2-methylpyridin-3-yl)benzenesulfonyl]-1-[1-(3-fluorophenyl)-2-methoxyethyl]-6-hydroxy-1,4-dihydropyrimidin-4-one] reads 8.00 to 11.00; that for `CCOCc1nc(=O)c(S(=O)(=O)c2ccc(-c3ccc(F)nc3C)c(F)c2)c(O)n1[C@@H](COC)c1ccccc1` [Example 339, 2-(ethoxymethyl)-5-[3-fluoro-4-(6-fluoro-2-methylpyridin-3-yl)benzenesulfonyl]-6-hydroxy-1-[(1R)-2-methoxy-1-phenylethyl]-1,4-dihydropyrimidin-4-one], 8.00 to 11.00; that for `CCCCc1nc(=O)c(S(=O)(=O)c2ccc(-c3ccncc3C)cc2)c(O)n1[C@H]1CCCc2ccccc21` [Example 224, 2-butyl-6-hydroxy-5-[4-(3-methylpyridin-4-yl)benzenesulfonyl]-1-[(1S)-1,2,3,4-tetrahydronaphthalen-1-yl]-1,4-dihydropyrimidin-4-one], 8.00 to 11.00. The same measure, in the same setting: the value for `CCCCc1nc(=O)c(S(=O)(=O)c2ccc(-c3ccncc3C)cc2)c(O)n1[C@@H](CC)c1cccc(C#N)c1` [Example 229, 3-[(1S)-1-{2-butyl-6-hydroxy-5-[4-(3-methylpyridin-4-yl)benzenesulfonyl]-4-oxo-1,4-dihydropyrimidin-1-yl}propyl]benzonitrile] was 8.00 to 11.00; that for `CCCCc1nc(=O)c(S(=O)(=O)c2ccc(Br)cc2)c(O)n1[C@@H](CC)c1cccc(C#N)c1` [Example 302, 3-[(1S)-1-[5-(4-bromobenzenesulfonyl)-2-butyl-4-hydroxy-6-oxo-1,6-dihydropyrimidin-1-yl]propyl]benzonitrile] was 8.00 to 11.00; that for `COC[C@@H](c1ccccc1)n1c(COC(C)C)nc(=O)c(S(=O)(=O)c2ccc(-c3ccc(F)nc3)c(F)c2)c1O` [Example 335, 5-[3-fluoro-4-(6-fluoropyridin-3-yl)benzenesulfonyl]-6-hydroxy-1-[(1R)-2-methoxy-1-phenylethyl]-2-[(propan-2-yloxy)methyl]-1,4-dihydropyrimidin-4-one] was 8.00 to 11.00.

Still in this assay, the particulars now being: human APJ, intracellular cAMP accumulation; read-out: Human APJ cAMP EC50 Potency range.
As to `CCCCc1nc(=O)c(S(=O)(=O)c2ccc(-c3ccncc3C)cc2)c(O)n1[C@@H](C)c1ccccc1` [Example 138, 2-butyl-6-hydroxy-5-[4-(3-methylpyridin-4-yl)benzenesulfonyl]-1-[(1S)-1-phenylethyl]-1,4-dihydropyrimidin-4-one], the pEC50 was 8.00 to 11.00. For `CCCCc1nc(=O)c(S(=O)(=O)c2ccc(-c3ccncc3C)cc2)c(O)n1[C@@H](CC)c1cccc(OC)c1` [Example 144, 2-butyl-6-hydroxy-1-[(1S)-1-(3-methoxyphenyl)propyl]-5-[4-(3-methylpyridin-4-yl)benzenesulfonyl]-1,4-dihydropyrimidin-4-one], the pEC50 is 8.00 to 11.00. Still for that read-out and setting: the result for `CCCCc1nc(=O)c(S(=O)(=O)c2ccc(-c3ccnc(C)c3)cc2)c(O)n1-c1c(OC)cccc1OC` [Example 27, 2-butyl-1-(2,6-dimethoxyphenyl)-6-hydroxy-5-[4-(2-methylpyridin-4-yl)benzenesulfonyl]-1,4-dihydropyrimidin-4-one] reads 8.00 to 11.00. Still for that read-out and setting: the result for `CCCCc1nc(=O)c(S(=O)(=O)c2ccc(Br)cc2)c(O)n1[C@H]1CCc2ccccc21` [Example 120, 5-(4-bromobenzenesulfonyl)-2-butyl-1-[(1S)-2,3-dihydro-1H-inden-1-yl]-6-hydroxy-1,4-dihydropyrimidin-4-one] reads 7.00 to 8.00; that for `CCCCc1nc(=O)c(S(=O)(=O)c2ccc(-c3nc(C(=O)OC)c(C)s3)cc2)c(O)n1-c1c(OC)cccc1OC` [Example 84, methyl 2-(4-{[2-butyl-1-(2,6-dimethoxyphenyl)-6-hydroxy-4-oxo-1,4-dihydropyrimidin-5-yl]sulfonyl}phenyl)-5-methyl-1,3-thiazole-4-carboxylate], 8.00 to 11.00.

As for `COC[C@@H](c1ccccc1)n1c(CC2CC2)nc(=O)c(S(=O)(=O)c2ccc(-c3cccnc3C)cc2)c1O` [Example 180, 2-(cyclopropylmethyl)-6-hydroxy-1-[(1R)-2-methoxy-1-phenylethyl]-5-[4-(2-methylpyridin-3-yl)benzenesulfonyl]-1,4-dihydropyrimidin-4-one], the pEC50 was 8.00 to 11.00. Same read-out and setting: the result for `CCCCc1nc(=O)c(S(=O)(=O)c2ccc(-n3ccccc3=O)cc2)c(O)n1-c1c(OC)cccc1OC` [Example 72, 2-butyl-1-(2,6-dimethoxyphenyl)-6-hydroxy-5-[4-(2-oxo-1,2-dihydropyridin-1-yl)benzenesulfonyl]-1,4-dihydropyrimidin-4-one] reads 8.00 to 11.00.

As for `CCCCc1nc(=O)c(S(=O)(=O)c2ccc(-c3cncc(F)c3)cc2)c(O)n1[C@@H](CC)c1cccc(OC)c1` [Example 145, 2-butyl-5-[4-(5-fluoropyridin-3-yl)benzenesulfonyl]-6-hydroxy-1-[(1S)-1-(3-methoxyphenyl)propyl]-1,4-dihydropyrimidin-4-one], the pEC50 was 8.00 to 11.00. The same measure, in the same setting: the result for `COC[C@@H](c1ccccc1)n1c(CCC(C)C)nc(=O)c(S(=O)(=O)c2ccc(-c3cccnc3C)cc2)c1O` [Example 190, 6-hydroxy-1-[(1R)-2-methoxy-1-phenylethyl]-2-(3-methylbutyl)-5-[4-(2-methylpyridin-3-yl)benzenesulfonyl]-1,4-dihydropyrimidin-4-one] reads 8.00 to 11.00; that for `CC[C@@H](c1ccccc1)n1c(CCC(C)C)nc(=O)c(S(=O)(=O)c2ccc(-c3ccc(F)nc3C)cc2)c1O` [Example 208, 5-[4-(6-fluoro-2-methylpyridin-3-yl)benzenesulfonyl]-6-hydroxy-2-(3-methylbutyl)-1-[(1S)-1-phenylpropyl]-1,4-dihydropyrimidin-4-one], 8.00 to 11.00.
